Test results from patent publication US10392368B2, “Pyrazolo and triazolo bicyclic compounds as JAK kinase inhibitors” (THERAVANCE BIOPHARMA R&D IP, LLC, priority 2017, dated 2019).
Read-outs that look alike come from different tables or passages of the source.

What was measured:
JAK1 = biological target: T1, JAK1 (Homo sapiens, UniProt P23458); test: Biochemical JAK1 kinase assay (LanthaScreen); conditions: for Ki: read-out: JAK 1 (pKi) (converted)
T1 construct: GST; purchased Life Technologies
Method in brief: (§1)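 Recombinant GST-tagged JAK enzymes with GFP-STAT1 peptide substrate in 50 mM HEPES pH 7.5, 10 mM MgCl2, 1 mM EGTA, 0.01% Brij-35; compounds pre-incubated 1 h, then ATP added, 1 h reaction at ambient temperature. TR-FRET (Tb-anti-pSTAT1 pTyr701, 520/495 nm) after EDTA stop; IC50 by 4-parameter fit, converted to pKi via Cheng-Prusoff.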

JAK2 = biological target: T2, JAK2 (Homo sapiens, UniProt O60674); test: Biochemical JAK2 kinase assay (LanthaScreen); conditions: for Ki: read-out: JAK 2 (pKi) (converted)
T2 construct: GST; purchased Life Technologies
Protocol: (§2) A panel of four LanthaScreen JAK biochemical assays (JAK1, 2, 3 and Tyk2) were carried in a common kinase reaction buffer (50 mM HEPES, pH 7.5, 0.01% Brij-35, 10 mM MgCl2, and 1 mM EGTA). Recombinant GST-tagged JAK enzymes and a GFP-tagged STAT1 peptide substrate were obtained from Life Technologies.
(§3) Serially or discretely diluted compounds were pre-incubated with each of the four JAK enzymes and the substrate in white 384-well microplates (Corning) at ambient temperature for 1 h. ATP was subsequently added to initiate the kinase reactions in 10 μL total volume, with 1% DMSO. […] Kinase reactions were allowed to proceed for 1 hour at ambient temperature before a 10 μL preparation of EDTA (10 mM final concentration) and Tb-anti-pSTAT1 (pTyr701) antibody (Life Technologies, 2 nM final concentration) in TR-FRET dilution buffer (Life Technologies) was added. The plates were allowed to incubate at ambient temperature for 1 h before being read on the EnVision reader (Perkin Elmer).
(§4) For dose-response analysis, percent inhibition data were plotted vs. compound concentrations, and IC50 values were determined from a 4-parameter robust fit model with the Prism software (GraphPad Software). Results were expressed as pIC50 (negative logarithm of IC50) and subsequently converted to pKi (negative logarithm of dissociation constant, Ki) using the Cheng-Prusoff equation.

Tyk2 = biological target: T3, Tyk2 (Homo sapiens, UniProt P29597); test: Biochemical Tyk2 kinase assay (LanthaScreen); conditions: read-out: Tyk 2 (pKi) (converted)
T3 construct: GST; purchased Life Technologies
Protocol: as §2
as §3, with “Elmer). Emission ratio signals (520 nm/495 nm) were recorded and utilized to calculate the percent inhibition values based on DMSO and background controls.” for “Elmer).”
as §4

JAK3 = biological target: T4, JAK3 (Homo sapiens, UniProt P52333); test: Biochemical JAK3 kinase assay (LanthaScreen); design: GST; purchased Life Technologies
T4 sequence (P52333 1-1124): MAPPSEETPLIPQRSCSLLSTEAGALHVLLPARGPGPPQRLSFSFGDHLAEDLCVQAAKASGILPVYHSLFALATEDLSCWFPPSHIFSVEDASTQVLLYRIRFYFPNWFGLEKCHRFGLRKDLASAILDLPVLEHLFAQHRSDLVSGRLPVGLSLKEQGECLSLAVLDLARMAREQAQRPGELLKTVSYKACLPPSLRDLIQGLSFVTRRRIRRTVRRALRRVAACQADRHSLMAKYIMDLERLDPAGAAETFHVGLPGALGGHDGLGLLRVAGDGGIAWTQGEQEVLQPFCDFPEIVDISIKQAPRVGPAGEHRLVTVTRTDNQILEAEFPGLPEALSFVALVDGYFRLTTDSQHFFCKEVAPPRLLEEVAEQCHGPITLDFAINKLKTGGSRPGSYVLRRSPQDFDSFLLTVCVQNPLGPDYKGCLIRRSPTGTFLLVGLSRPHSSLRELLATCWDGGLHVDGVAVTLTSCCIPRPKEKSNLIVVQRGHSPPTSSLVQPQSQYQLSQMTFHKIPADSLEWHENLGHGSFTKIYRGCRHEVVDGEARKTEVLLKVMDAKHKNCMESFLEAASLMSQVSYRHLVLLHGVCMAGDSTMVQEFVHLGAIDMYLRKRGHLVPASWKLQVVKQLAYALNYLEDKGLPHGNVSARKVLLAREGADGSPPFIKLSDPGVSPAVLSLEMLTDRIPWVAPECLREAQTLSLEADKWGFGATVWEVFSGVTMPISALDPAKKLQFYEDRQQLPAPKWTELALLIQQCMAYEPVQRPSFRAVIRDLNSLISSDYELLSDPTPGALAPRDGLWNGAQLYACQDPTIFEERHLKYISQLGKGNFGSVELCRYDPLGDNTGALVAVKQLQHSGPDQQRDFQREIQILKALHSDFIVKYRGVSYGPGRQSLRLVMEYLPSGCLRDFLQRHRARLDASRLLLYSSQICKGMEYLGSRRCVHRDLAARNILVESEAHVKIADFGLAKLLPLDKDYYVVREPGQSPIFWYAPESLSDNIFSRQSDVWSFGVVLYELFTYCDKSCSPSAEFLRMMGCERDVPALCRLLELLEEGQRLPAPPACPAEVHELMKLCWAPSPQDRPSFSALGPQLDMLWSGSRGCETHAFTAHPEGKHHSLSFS
Method in brief: as §1

[1] = tested on: IL-2 stimulated pSTAT5 in Tall-1 T cells; test: Cellular JAK3 potency assay: inhibition of IL-2 stimulated pSTAT5 in Tall-1 T cells; format: cell-based, human; conditions: for IC50: Homo sapiens, read-out: Tall-1 (pIC50) (converted); for Tall-1 (pIC50): IL-2 stimulated pSTAT5, Tall-1 T cells
Method in brief: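 Inhibition of IL-2-induced pSTAT5 was quantified by AlphaLisa in Tall-1 cell lysates. Compound exposure lasted 1 h before 30 min stimulation with 300 ng/ml IL-2 final.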

[2] = read-out: JAK 3 (pKi) (converted)
[3] = selectivity: difference of pKi JAK3 and pKi JAK1
[4] = TALL-1, IL-2 stimulated pSTAT5 in Tall-1 T cells
[5] = selectivity JAK3 over JAK1, difference of pKi
[6] = TALL-1, IL-2 stimulated pSTAT5, Tall-1 T cells

T1 sequence (P23458 whole entry): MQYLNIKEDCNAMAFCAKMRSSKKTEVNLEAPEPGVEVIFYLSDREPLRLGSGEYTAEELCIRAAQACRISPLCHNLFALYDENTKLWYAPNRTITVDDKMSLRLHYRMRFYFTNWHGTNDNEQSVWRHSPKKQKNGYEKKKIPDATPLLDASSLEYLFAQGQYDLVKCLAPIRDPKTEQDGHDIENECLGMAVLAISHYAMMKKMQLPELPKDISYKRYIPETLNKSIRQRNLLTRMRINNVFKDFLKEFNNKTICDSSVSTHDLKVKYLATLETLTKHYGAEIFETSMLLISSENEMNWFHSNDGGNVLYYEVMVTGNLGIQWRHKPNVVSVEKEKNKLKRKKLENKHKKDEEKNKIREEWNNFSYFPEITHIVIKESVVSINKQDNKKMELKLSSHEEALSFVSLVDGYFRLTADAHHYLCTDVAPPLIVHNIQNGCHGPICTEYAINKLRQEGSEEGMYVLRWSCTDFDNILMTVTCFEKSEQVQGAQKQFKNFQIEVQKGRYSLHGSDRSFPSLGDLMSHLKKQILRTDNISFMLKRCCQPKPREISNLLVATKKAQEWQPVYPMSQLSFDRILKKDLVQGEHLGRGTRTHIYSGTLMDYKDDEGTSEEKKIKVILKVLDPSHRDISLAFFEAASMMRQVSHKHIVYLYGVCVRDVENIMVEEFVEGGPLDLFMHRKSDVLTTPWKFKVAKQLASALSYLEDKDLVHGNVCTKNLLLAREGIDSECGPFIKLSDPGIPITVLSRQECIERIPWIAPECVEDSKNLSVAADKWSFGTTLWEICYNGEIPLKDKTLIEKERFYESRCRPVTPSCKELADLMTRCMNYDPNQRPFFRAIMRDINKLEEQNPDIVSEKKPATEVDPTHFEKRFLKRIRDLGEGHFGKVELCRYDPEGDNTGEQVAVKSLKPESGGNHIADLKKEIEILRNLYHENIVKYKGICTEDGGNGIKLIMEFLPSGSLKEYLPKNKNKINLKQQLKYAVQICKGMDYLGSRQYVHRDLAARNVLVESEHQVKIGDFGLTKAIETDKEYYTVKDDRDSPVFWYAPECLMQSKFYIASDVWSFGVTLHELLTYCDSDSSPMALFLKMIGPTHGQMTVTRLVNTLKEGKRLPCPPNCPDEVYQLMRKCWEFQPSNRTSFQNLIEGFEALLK
T3 sequence (P29597 whole entry): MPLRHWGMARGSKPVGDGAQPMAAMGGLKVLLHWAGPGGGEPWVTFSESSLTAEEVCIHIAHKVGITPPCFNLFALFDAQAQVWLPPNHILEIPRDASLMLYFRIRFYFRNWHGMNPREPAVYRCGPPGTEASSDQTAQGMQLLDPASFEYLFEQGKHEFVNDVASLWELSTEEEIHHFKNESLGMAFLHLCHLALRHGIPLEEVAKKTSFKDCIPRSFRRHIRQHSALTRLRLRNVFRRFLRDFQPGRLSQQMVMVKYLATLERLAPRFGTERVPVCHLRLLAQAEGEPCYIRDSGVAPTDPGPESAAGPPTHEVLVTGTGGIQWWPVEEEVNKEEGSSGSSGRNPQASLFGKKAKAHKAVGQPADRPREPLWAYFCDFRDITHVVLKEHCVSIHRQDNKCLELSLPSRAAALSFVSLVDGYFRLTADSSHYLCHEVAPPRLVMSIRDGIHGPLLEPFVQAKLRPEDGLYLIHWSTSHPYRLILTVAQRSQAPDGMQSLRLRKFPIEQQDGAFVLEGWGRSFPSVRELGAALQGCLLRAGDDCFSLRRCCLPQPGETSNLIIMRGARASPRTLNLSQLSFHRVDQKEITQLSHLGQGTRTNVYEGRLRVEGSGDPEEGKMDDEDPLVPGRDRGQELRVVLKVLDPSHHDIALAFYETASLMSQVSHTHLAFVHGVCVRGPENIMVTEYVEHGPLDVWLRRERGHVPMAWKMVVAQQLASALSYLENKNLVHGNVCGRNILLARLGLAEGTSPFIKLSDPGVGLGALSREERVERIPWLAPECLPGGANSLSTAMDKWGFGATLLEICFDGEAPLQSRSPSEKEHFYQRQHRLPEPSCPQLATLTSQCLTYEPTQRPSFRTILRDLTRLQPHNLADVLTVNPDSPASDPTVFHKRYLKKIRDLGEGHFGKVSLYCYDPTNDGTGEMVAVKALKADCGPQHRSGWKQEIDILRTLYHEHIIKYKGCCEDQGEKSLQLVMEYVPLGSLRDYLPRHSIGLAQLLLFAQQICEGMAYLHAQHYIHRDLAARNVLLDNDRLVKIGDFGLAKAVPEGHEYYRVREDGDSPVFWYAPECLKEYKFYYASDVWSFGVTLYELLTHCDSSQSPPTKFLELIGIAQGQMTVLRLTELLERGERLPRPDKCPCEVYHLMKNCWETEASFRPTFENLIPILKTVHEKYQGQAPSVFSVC
T2 sequence (O60674 whole entry): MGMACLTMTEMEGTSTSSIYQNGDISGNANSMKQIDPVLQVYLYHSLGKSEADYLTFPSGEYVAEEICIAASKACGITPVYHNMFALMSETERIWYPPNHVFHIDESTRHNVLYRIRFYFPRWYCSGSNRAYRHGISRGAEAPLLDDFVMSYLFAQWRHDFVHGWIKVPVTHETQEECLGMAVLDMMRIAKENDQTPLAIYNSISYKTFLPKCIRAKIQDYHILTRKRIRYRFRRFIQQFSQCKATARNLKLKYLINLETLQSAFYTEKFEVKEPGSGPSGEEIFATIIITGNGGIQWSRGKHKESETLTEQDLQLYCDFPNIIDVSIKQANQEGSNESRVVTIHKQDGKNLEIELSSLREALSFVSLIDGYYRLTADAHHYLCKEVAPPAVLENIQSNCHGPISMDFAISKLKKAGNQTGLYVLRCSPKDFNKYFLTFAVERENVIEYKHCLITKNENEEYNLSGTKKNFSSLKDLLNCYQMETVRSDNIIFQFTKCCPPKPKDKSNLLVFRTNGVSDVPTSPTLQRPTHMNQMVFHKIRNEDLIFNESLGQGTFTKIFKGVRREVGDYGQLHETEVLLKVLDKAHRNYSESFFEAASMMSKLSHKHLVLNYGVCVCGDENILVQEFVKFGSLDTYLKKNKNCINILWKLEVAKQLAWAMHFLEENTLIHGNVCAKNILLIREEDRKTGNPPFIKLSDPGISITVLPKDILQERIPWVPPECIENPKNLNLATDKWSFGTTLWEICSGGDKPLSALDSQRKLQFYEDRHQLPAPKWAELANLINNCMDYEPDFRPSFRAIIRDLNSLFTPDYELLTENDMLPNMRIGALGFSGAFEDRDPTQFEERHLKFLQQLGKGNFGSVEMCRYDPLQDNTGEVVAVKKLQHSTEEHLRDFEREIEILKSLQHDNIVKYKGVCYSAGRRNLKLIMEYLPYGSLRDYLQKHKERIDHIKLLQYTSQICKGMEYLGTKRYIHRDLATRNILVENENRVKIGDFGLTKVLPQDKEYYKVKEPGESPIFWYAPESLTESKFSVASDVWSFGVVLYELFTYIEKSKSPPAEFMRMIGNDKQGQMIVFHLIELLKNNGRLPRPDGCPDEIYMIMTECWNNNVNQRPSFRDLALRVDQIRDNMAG

Compound | Ki (JAK1) | Ki (JAK3; [2]) | JAK3 (pKi)-JAK1 (pKi) (JAK3; [3]) | JAK 3 (pKi) (JAK3) | JAK 1 (pKi) (JAK1) | Tall-1 (pIC50) [1] | JAK3 (pKi)-JAK1 (pKi) (JAK3; [5]) | IC50 [1, 6] | further results
CN(C)C/C=C/C(=O)N1CC[C@H](Oc2cc(-c3ccc(O)cc3)cc3[nH]ncc23)C1 [Compound 1-1] | > 100 nM | 0.1 to 1 nM | A (a value of 3 or above) |  |  |  |  |  | Ki (JAK2): 10 to 100 nM; Ki (Tyk2): > 100 nM
C=CC(=O)N1CC[C@H](Oc2cc(-c3ccc(O)cc3)cc3[nH]ncc23)C1 [Compound 1-2] | > 100 nM | < 0.1 nM | A (a value of 3 or above) |  |  |  |  |  | Ki (JAK2): 10 to 100 nM; Ki (Tyk2): > 100 nM; IC50 [1, 4]: < 31.6 nM
C=CC(=O)N1CC[C@H](Oc2cc(-c3ccc(O)c(F)c3)cc3[nH]ncc23)C1 [Compound 1-5] | > 100 nM | < 0.1 nM | A (a value of 3 or above) |  |  |  |  |  | Ki (JAK2): 10 to 100 nM; Ki (Tyk2): > 100 nM; IC50 [1, 4]: < 31.6 nM
C=CC(=O)N1CC[C@H](Oc2nc(-c3ccc(O)cc3)cc3[nH]ncc23)C1 [Compound 1-8] | > 100 nM | 0.1 to 1 nM | A (a value of 3 or above) |  |  |  |  |  | Ki (JAK2): > 100 nM; Ki (Tyk2): > 100 nM; IC50 [1, 4]: 31.6 to 200 nM
C=CC(=O)N1CC(C(C)Oc2nc(-c3ccc(O)cc3)nc3[nH]ncc23)C1 (stereo not shown) [Compound 3-78] |  |  | A (a value of 3 or above) | B (a pKi value between 9 and 10 (Ki between 1 nM and 0.1 nM)) |  |  |  |  | JAK 2 (pKi) (JAK2): E (a pKi value of 7 or below (Ki of 100 nM or above))
CN(C)C/C=C/C(=O)N1CC2(CC(Oc3cc(-c4ccc(O)c(Cl)c4)cc4[nH]ncc34)C2)C1 [Compound 15-4] |  |  |  | A (a pKi value≥10 (Ki≤0.1 nM)) | E (a pKi value of 7 or below (Ki of 100 nM or above)) | B (a pIC50 value between 6.7 (included) and 7.5 (IC50 between 200 nM and 32 nM)) | A (a value of 3 or above) |  | 
CN(C)C/C=C/C(=O)N1CC2(CC(Oc3nc(-c4ccc(O)cc4)cc4[nH]ncc34)C2)C1 [Compound 15-6] |  |  |  | A (a pKi value≥10 (Ki≤0.1 nM)) | D (a pKi value between 7 and 8 (Ki between 100 nM and 10 nM)) | C (a pIC50 value between 6 and 6.7 (IC50 between 1 μM and 200 nM)) | B (a value of 2.3 to 3) |  | 
C=CC(=O)N1CC2(CC(Oc3cc(-c4ccc(O)cc4)nc4[nH]ncc34)C2)C1 [Compound 15-8] |  |  |  | B (a pKi value between 9 and 10 (Ki between 1 nM and 0.1 nM)) | D (a pKi value between 7 and 8 (Ki between 100 nM and 10 nM)) | B (a pIC50 value between 6.7 (included) and 7.5 (IC50 between 200 nM and 32 nM)) | B (a value of 2.3 to 3) |  | 
C=C(CN(C)C)C(=O)N1CC[C@H](Oc2cc(-c3ccc(O)cc3)cc3[nH]ncc23)C1 [Compound 16, (S)-2-((dimethylamino)methyl)-1-(3-((6-(4-hydroxyphenyl)-1H-indazol-4-yl)oxy)pyrrolidin-1-yl)prop-2-en-1-one] | > 100 nM | 0.1 to 1 nM | A (a value of 3 or above) |  |  |  |  |  | IC50 [1, 4]: 31.6 to 200 nM
C=CC(=O)N1CC(OCc2cc(-c3ccc(O)cc3)nc3[nH]ncc23)C1 [Compound 16-4] |  |  |  | B (a pKi value between 9 and 10 (Ki between 1 nM and 0.1 nM)) | E (a pKi value of 7 or below (Ki of 100 nM or above)) | B (a pIC50 value between 6.7 (included) and 7.5 (IC50 between 200 nM and 32 nM)) | A (a value of 3 or above) |  | 
C#CC(=O)N1CC[C@H](Oc2cc(-c3ccc(O)cc3)cc3[nH]ncc23)C1 [Compound 17, (S)-1-(3-((6-(4-hydroxyphenyl)-1H-indazol-4-yl)oxy)pyrrolidin-1-yl)prop-2-yn-1-one] | > 100 nM |  | B (a value of 2.3 to 3) |  |  |  |  |  | IC50 [1, 4]: 200 to 1000 nM; Ki (JAK3; JAK 3 (pKi)): 0.1 to 1 nM
C=CC(=O)N1CCC(Oc2cc(-c3ccc(O)cc3)cc3[nH]nnc23)C1 (stereo not shown) [Compound 17-2] |  |  |  | A (a pKi value≥10 (Ki≤0.1 nM)) | E (a pKi value of 7 or below (Ki of 100 nM or above)) | C (a pIC50 value between 6 and 6.7 (IC50 between 1 μM and 200 nM)) | A (a value of 3 or above) |  | 
CN(C)C/C=C/C(=O)N1CC(COc2cc(-c3c(F)cc(O)cc3F)cc3[nH]ncc23)C1 [Compound 18-2] | 10 to 100 nM | < 0.1 nM |  |  |  |  | C (a value of 1.8 to 2.3) | < 31.6 nM | 
Cc1n[nH]c2cc(-c3ccc(O)cc3)cc(OCC3CN(C(=O)/C=C/CN(C)C)C3)c12 [Compound 18-4] | 10 to 100 nM | < 0.1 nM |  |  |  |  | B (a value of 2.3 to 3) | 31.6 to 200 nM | 
C=CC(=O)N1CC(COc2cc(-c3ccc(O)cc3)cc3[nH]nc(C)c23)C1 [Compound 18-5] | 10 to 100 nM | 0.1 to 1 nM |  |  |  |  | B (a value of 2.3 to 3) | < 31.6 nM | 
C=CC(=O)N1CC(COc2cc(-c3ccc(O)c(Cl)c3)cc3[nH]nc(C)c23)C1 [Compound 18-6] | 10 to 100 nM | 0.1 to 1 nM |  |  |  |  | B (a value of 2.3 to 3) | < 31.6 nM | 
C=CC(=O)N1CC(COc2cc(-c3ccc(O)c(F)c3)cc3[nH]nc(C)c23)C1 [Compound 18-7] | 10 to 100 nM | 0.1 to 1 nM |  |  |  |  | C (a value of 1.8 to 2.3) | < 31.6 nM | 
C=CC(=O)N1CC(COc2cc(-c3ccc(O)cc3)cc3[nH]nc(N(C)C)c23)C1 [Compound 18-11] | > 100 nM | 0.1 to 1 nM |  |  |  |  | A (a value of 3 or above) | 200 to 1000 nM | 
C=CC(=O)N1CC(COc2cc(-c3ccc(O)cc3)cc3[nH]nc(Cl)c23)C1 [Compound 18-14] |  |  |  | B (a pKi value between 9 and 10 (Ki between 1 nM and 0.1 nM)) | E (a pKi value of 7 or below (Ki of 100 nM or above)) | B (a pIC50 value between 6.7 (included) and 7.5 (IC50 between 200 nM and 32 nM)) | A (a value of 3 or above) |  | 
